Reference: US12396975B2, “Treatment of al amyloidosis with melflufen” (Oncopeptides AB, priority 2019, dated 2025)
Read-outs that look alike come from different tables or passages of the source.

Key:
[1] = system: lambda light chain secretion in ALMC-1 cells; experiment: Human Lambda ELISA of light chain secretion, ALMC-1; type: cell-based; conditions: 72 h; for IC50: Homo sapiens, ALMC1, light chain secretion in supernatant
Protocol: (§1) Cells were plated in a 96-well format in the presence of the indicated compound in doses ranging from 0.014 to 10 mM for 72 hours at 37° C. Cell viability was determined by CellTiter-Blue™ using the manufacturer's standard protocol. Lambda and kappa light chain secretion was measured in the supernatant of cells by ELISA.
(§2) In more detail, for each cell line (JJN3, ALMC-1 and ALMC-2) cells were harvested, washed, re-suspended into full growth media and counted. The cells were seeded at the cell densities shown in Table 1, below, into the inner 60 wells of a 96-well assay plates (Corning, black-wall plates, Cat #3904) in 50 μl/well aliquots. The plates were incubated overnight at 37° C. in 5% humidified CO2. 10 mM stocks of melphalan or melflufen-HCl were used, and sub-aliquots were prepared from the 10 mM stocks of melphalan or melflufen-HCl by diluting the stock. The diluted stock was added into cell culture media at the indicated concentrations for the experiment (0.014 to 10 mM).
(§3) For analysis of secreted proteins, 72 h after incubation, the cells were pelleted by centrifugation at 300 RCF, 4° C. for 5 min and the supernatant taken and used immediately for ELISA analysis using commercial ELISA kits (below) and the manufacturer's protocols: • Human Kappa ELISA (Bethyl Laboratories, #E80-115) • Human Lambda ELISA (Bethyl Laboratories, #E80-116)

ALMC-1 cell line = experiment: Cell viability by CellTiter-Blue, ALMC-1; type: cell-based, human; conditions: 72 h
Protocol: (§4) Cellular toxicity was measured in response to either melflufen or melphalan in the amyloidosis patient-derived light chain secreting ALMC-1 and ALMC-2 cell lines, and the light chain secreting cell line JJN3.
as §1
as §2, with “The diluted stock was added into cell culture media at the indicated concentrations for the experiment (0.014 to 10 mM).” left out
(§5) 50 microliters per well of compound/vehicle dilutions were added to the plates in replicates of 3 and incubated for 72 h at 37° C. in 5% humidified CO2. […] Fluorescence was measured using a VarioSkan Flash plate reader (570 nm excitation wavelength, 600 nm emission wavelength).

JJN3 cell line = experiment: Cell viability by CellTiter-Blue, JJN3; type: cell-based, human; conditions: 72 h; for IC50: Homo sapiens, JJN-3, cell viability, CellTiter-Blue, doses 0.014 to 10 mM
Protocol: as §4, §1, §2
50 microliters per well of compound/vehicle dilutions were added to the plates in replicates of 3 and incubated for 72 h at 37° C. in 5% humidified CO2. To develop the plates after 72 h, 20 μl of CellTiter-Blue™ reagent was added to each test/blank well. The plates were incubated at 37° C., 5% humidified CO2 for 1.5/3 h. Fluorescence was measured using a VarioSkan Flash plate reader (570 nm excitation wavelength, 600 nm emission wavelength).

[2] = system: plasma cells (CD138+ cells) within bone marrow mononuclear cell samples from AL amyloidosis patients; experiment: Multiplexed high throughput flow cytometry cytotoxicity assay on patient-derived bone marrow mononuclear cells; type: cell-based, human; conditions: for EC50: Homo sapiens; for Cytotoxicity compared to melphalan: in vitro AL amyloidosis cell model, identical concentrations; for Response of plasma cells (CD138+ cells) to treatment: 1 to 100,000 nM
Protocol: Viably frozen bone marrow mononuclear cells (MNC) from 11 amyloidosis patients were received from a biobank.
Viably frozen cells were thawed and incubated overnight to exclude apoptotic cells. On Day 1, a homogeneous cell suspension at a density of 2×10^6 cells/ml was prepared in RPMI 1640 medium (Lonza) supplemented with 10% fetal bovine serum, 2 mM L-glutamine, penicillin (100 U/ml), streptomycin (100 μg/ml) and 25% conditioned medium from the HS-5 human BM stromal cell line. Melflufen powders were stored in pre-weighted amounts in vials in oxygen and moisture free storage pods. Fresh 10 mM melflufen aliquots were prepared in DMSO. Serial dilutions were prepared in cell culture media and immediately transferred to 96 well plate containing mononuclear cells.
A multiplexed high throughput flow cytometer based assay (iQue® Screener PLUS) was applied, allowing simultaneous monitoring of drug responses in multiple hematopoietic cell subsets. A panel of eight antibodies against CD8, CD14, CD19, CD38, CD45, CD56, CD138 and CD269 were purchased. Annexin-V and 7-AAD were included to exclude dead or apoptotic cells from the analysis. Optimal antibody concentrations were determined and fluorescence compensations were computed to correct spectral overlaps between different fluorochromes. The plates containing melflufen treated cells were incubated in a humidified environment at 37° C. and 5% CO2. After 72 h, antibody cocktails were added to the wells and incubated for 30 min before the plates were read with the iQue® Screener PLUS instrument (Intellicyt®). The data was analyzed using ForeCyt software (Intellicyt). Graphpad Prism 7.0 to generate dose response graphs. Singlet mononuclear cells were subjected to dead and apoptotic cell exclusion using DNA staining dye 7-AAD and expression of Annexin-V surface antigens. Live cell counts for each cell populations were used to analyse effect of different doses on cell viability. Surviving cell fraction were computed by normalizing with viability of untreated cells for each cell subsets.
Melflufen was tested in six concentration over 100,000-fold dilutions (1 to 100,000 nM). Out of 12 cell samples tested, two samples were excluded due to poor viability. The viable samples were assigned the reference numbers AL-1886, AL-2983, AL-4839_2, AL-4839_3, AL-4847, AL-5691, AL-5716, AL-5807, AL-7219, AL-400081.

[3] = system: lambda light chain secretion in ALMC-2 cells; experiment: Human Lambda ELISA of light chain secretion, ALMC-2; type: cell-based; conditions: 72 h; for IC50: Homo sapiens, ALMC2, light chain secretion in supernatant
Protocol: as §1, §2, §3

[4] = system: MM.1S, RPMI-8826, U266 and ALMC-2 cells; experiment: Apoptosis and unfolded protein response (UPR) markers in malignant cell lines; type: cell-based, human; conditions: all cell lines tested; 6 h, 12 h or 24 h
Protocol: The toxic effects of melflufen and melphalan were compared in malignant cell lines, including RPMI-8826, ALMC-2, MM1S, and U266 to confirm enhanced toxicity of melflufen compared to melphalan. ALMC-2 cells are derived from an amyloidosis patient. MM.1S, RPMI-8826, U266 or ALMC-2 cells were incubated in the presence or absence of melflufen-HCl or melphalan at the indicated concentrations in FIG. 5A for 6 h, 12 h or 24 h. Cells were then harvested and apoptosis and cell death in response to melflufen and melphalan were measured by Annexin V/propidium iodide and live/dead cell staining by flow cytometry, as well as analysis of cleaved caspases 3, 8, and 9 and PARP by western blot. Effects of melflufen and melphalan on the UPR were examined by analysis of UPR associated molecules including phosphorylated eIF2a, ATF4, IRE1a and PERK by immunoblot analysis using commercially available detection reagents and standard protocols, and ATF4, ATF6, PERK, IRE1 and CHOP by real time qPCR with gene specific primer sets. In addition, XBP-1 splicing was evaluated by PCR analysis.

ALMC-2 cell line = experiment: Cell viability by CellTiter-Blue, ALMC-2; type: cell-based, human; conditions: 72 h
Protocol: as §4, §1
as §2, with “The diluted stock was added into cell culture media at the indicated concentrations for the experiment (0.014 to 10 mM).” left out
as §5

[5] = system: kappa light chain secretion in JJN3 cells; experiment: Human Kappa ELISA of light chain secretion, JJN3; type: cell-based; conditions: 72 h
Protocol: as §1, §2, §3

AL amyloidosis = conditions: cited from earlier work

## CCOC(=O)[C@H](Cc1ccc(F)cc1)NC(=O)[C@@H](N)Cc1ccc(N(CCCl)CCCl)cc1.Cl [melflufen, L-Melphalanyl-4-fluoro-L-phenylalanine ethyl ester]
[1]; ALMC-1
  Inhibition of light chain secretion compared to melphalan: superior inhibition
[1]
  IC50: 0.2 µM
ALMC-1 cell line; ALMC-1
  Sensitivity compared with melphalan: increased sensitivity
ALMC-1 cell line; Homo sapiens, ALMC1, cell viability, CellTiter-Blue, doses 0.014 to 10 mM
  IC50: 1.6 µM
JJN3 cell line
  IC50: 1.2 µM
JJN3 cell line; JJN3
  Sensitivity compared with melphalan: increased sensitivity
[2]; 72 h, sample AL-2983, 72 h, read-out: EC50, survival of plasma cells (CD138+ cells)
  EC50: 0.007 µM
[2]; 72 h, sample AL-4847, 72 h, read-out: EC50, survival of plasma cells (CD138+ cells)
  EC50: 0.032 µM
[2]; 72 h, sample AL-5807, 72 h, read-out: EC50, survival of plasma cells (CD138+ cells)
  EC50: 0.001 µM
[2]; cell samples obtained from a population of AL amyloidosis patients, lowest value, read-out: EC50 values as low as, in vitro AL amyloidosis cell model
  EC50: ≥ 0.001 µM
[2]
  Cytotoxicity compared to melphalan: at least 100 times
[2]; listed as Melflufen
  Cytotoxicity compared to melphalan: 100 times
[2]; plasma cells obtained from patients
  Cytotoxicity in in vitro AL amyloidosis cell model: highly cytotoxic
[2]; samples AL-1886, AL-4839_2, AL-4839_3, AL-5716 and AL-7219, 72 h
  Response of plasma cells (CD138+ cells) to treatment: no notable response
[2]; samples AL-2983, AL-4847, AL-5691, AL-5807 and AL-400081, 72 h
  Response of plasma cells (CD138+ cells) to treatment: displayed sensitivity
[3]; ALMC-2
  Inhibition of light chain secretion compared to melphalan: superior inhibition
[3]
  IC50: 0.45 µM
[4]
  Sensitivity with regard to inducing apoptosis, XBP-1 splicing and markers of UPR and apoptosis, compared to melphalan: significantly more sensitive to melflufen than melphalan
ALMC-2 cell line; ALMC-2
  Sensitivity compared with melphalan: increased sensitivity
ALMC-2 cell line; Homo sapiens, ALMC2, cell viability, CellTiter-Blue, doses 0.014 to 10 mM
  IC50: 1.2 µM
[5]; Homo sapiens, JJN-3, light chain secretion in supernatant
  IC50: 2.9 µM
[5]; JJN3
  Inhibition of light chain secretion compared to melphalan: superior inhibition

## N[C@@H](Cc1ccc(N(CCCl)CCCl)cc1)C(=O)O [melphalan, reference compound]
[1]
  IC50: 2.5 µM
AL amyloidosis; high-dose melphalan (for example 200 mg/m^2) with autologous hematopoietic stem cell rescue
  Treatment-related toxicity and mortality: significant treatment-related toxicity and high treatment related mortality rates
AL amyloidosis; melphalan (for example 20-25 mg/m^2) in combination with prednisolone
  Plasma cell levels and survival: reduce plasma cell levels and increase survival rates by a few months
JJN3 cell line
  IC50: 5.4 µM
[3]
  IC50: 5.1 µM
